# Columns and labels:
# Format in all cases: functional
# Klebsiella pneumoniae = experiment: In vitro antibacterial activity against Klebsiella X26
# Pseudomonas aeruginosa = experiment: In vitro antibacterial activity against Pseudomonas PS72
# Haemophilus influenzae = experiment: In vitro antibacterial activity against Haemophilus influenza C.L
# Klebsiella aerogenes = experiment: In vitro antibacterial activity against Enterobacter aerogenes C32
# Staphylococcus aureus = experiment: In vitro antibacterial activity against Staphylococcus aureus X1.1
# Streptococcus pneumoniae = experiment: In vitro antibacterial activity against Streptococcus pneumoniae PARK
# Escherichia coli = experiment: In vitro antibacterial activity against Escherichia coli EC14
# [1] = tested on: Staphylococcus epidermidis; experiment: In vitro antibacterial activity against Staphylococcus epidermidis 222
Structure (SMILES),MIC (Klebsiella pneumoniae) [µg/mL],MIC (Pseudomonas aeruginosa) [µg/mL],MIC (Haemophilus influenzae) [µg/mL],MIC (Klebsiella aerogenes) [µg/mL],MIC (Staphylococcus aureus) [µg/mL],MIC (Streptococcus pneumoniae) [µg/mL],MIC (Escherichia coli) [µg/mL],MIC [1] [µg/mL]
N#CC1=C(C(=O)O)N2C(=O)[C@@H](NC(=O)/C(=N/OCCF)c3csc(N)n3)CN2C1,0.03,128,0.25,0.125,32,0.25,0.03,16
N#CC1=C(C(=O)O)N2C(=O)[C@@H](NC(=O)CSc3ccccc3)CN2C1,16,> 128,32,128,4,0.5,32,8
N#CC1=C(C(=O)O)N2C(=O)[C@@H](NC(=O)Cc3cccs3)CN2C1,32,> 128,16,64,8,2,16,32
N#CC1=C(C(=O)O)N2C(=O)[C@@H](NC(=O)Cc3csc(N)n3)CN2C1,16,> 128,32,32,32,2,16,64
Nc1nc(/C(=N\OCCCl)C(=O)N[C@H]2CN3CC(S(=O)(=O)c4ccccc4)=C(C(=O)O)N3C2=O)cs1,0.06,> 128,0.25,4,16,0.06,1,32
CS(=O)(=O)C1=C(C(=O)O)N2C(=O)[C@@H](NC(=O)/C(=N/OCC#N)c3csc(N)n3)CN2C1,0.25,> 128,2,0.5,64,0.25,0.25,128
N#CC1=C(C(=O)O)N2C(=O)[C@@H](NC(=O)/C(=N/OCc3ccccc3)c3csc(N)n3)CN2C1,0.125,> 128,0.25,8,8,0.06,8,8
CCCS(=O)(=O)C1=C(C(=O)O)N2C(=O)[C@@H](NC(=O)/C(=N/OCC(F)(F)F)c3csc(N)n3)CN2C1,0.06,> 128,0.25,1,16,0.125,0.25,32
C=CCO/N=C(/C(=O)N[C@H]1CN2CC(S(=O)(=O)CCC)=C(C(=O)O)N2C1=O)c1csc(N)n1,0.06,> 128,0.25,0.5,16,0.06,0.5,32

# More lines, in order of falling MIC (Klebsiella pneumoniae), values ahead:
MIC (Klebsiella pneumoniae) [µg/mL],MIC (Pseudomonas aeruginosa) [µg/mL],MIC (Haemophilus influenzae) [µg/mL],MIC (Klebsiella aerogenes) [µg/mL],MIC (Staphylococcus aureus) [µg/mL],MIC (Streptococcus pneumoniae) [µg/mL],MIC (Escherichia coli) [µg/mL],MIC [1] [µg/mL],Structure (SMILES)
0.125,> 128,1,2,32,0.25,1,32,CS(=O)(=O)C1=C(C(=O)O)N2C(=O)[C@@H](NC(=O)/C(=N/OCCCCCl)c3csc(N)n3)CN2C1
0.125,8,0.06,0.06,> 128,2,0.03,> 128,CC(C)(O/N=C(/C(=O)N[C@H]1CN2CC(S(C)(=O)=O)=C(C(=O)O)N2C1=O)c1csc(N)n1)C(=O)O
0.06,> 128,0.5,1,16,0.125,0.5,32,CCCO/N=C(/C(=O)N[C@H]1CN2CC(S(=O)(=O)CCC)=C(C(=O)O)N2C1=O)c1csc(N)n1
0.03,> 128,0.5,4,8,0.06,2,16,Nc1nc(/C(=N\OCCCl)C(=O)N[C@H]2CN3CC(S(=O)(=O)Cc4ccccc4)=C(C(=O)O)N3C2=O)cs1
0.03,> 128,0.5,0.125,16,0.25,0.125,32,CS(=O)(=O)C1=C(C(=O)O)N2C(=O)[C@@H](NC(=O)/C(=N/OCCCl)c3csc(N)n3)CN2C1
0.03,128,0.125,0.25,8,0.125,0.125,16,C=CCO/N=C(/C(=O)N[C@H]1CN2CC(S(C)(=O)=O)=C(C(=O)O)N2C1=O)c1csc(N)n1
0.03,> 128,0.5,1,8,0.125,0.5,16,CCCCS(=O)(=O)C1=C(C(=O)O)N2C(=O)[C@@H](NC(=O)/C(=N/OCCCl)c3csc(N)n3)CN2C1
0.015,> 128,0.25,0.25,8,0.125,0.06,8,CCS(=O)(=O)C1=C(C(=O)O)N2C(=O)[C@@H](NC(=O)/C(=N/OCCBr)c3csc(N)n3)CN2C1
